The values that follow come from patent US20190124918A1, “BIOFILM FORMATION INHIBITOR AND BIOFILM FORMATION INHIBITING COMPOSITION” (KAO CORPORATION, priority 2016, published 2019).

The nature of data set [1]: Dissolution in solvent (MDG) when preparing compositions. The data set is classed as physicochemical. Conditions: preparation of compositions. The protocol:
(§1) Predetermined amounts of p-toluquinone and HEDP were weighed and solvent (MDG) was added to prepare a composition. Since citric acid and EDTA were not dissolved in MDG, they were directly added in culture solutions; at the same time, p-toluquinone was directly added to the culture solutions.

Data set [2] relates to biofilm-forming microbe isolated from cooling water taken from a water cooling tower. The data set is described as follows: Biofilm inhibition test, quinone-based compound and chelating agent (OD570). The data set is classed as cell-based. As to conditions: Experiment No. 19: Toluquinone 0 ppm, Citric acid 10 ppm; 0 ppm/0 ppm gave 0.329. The method, then: A biofilm-forming microbe (microbe showing a OD570 value of 0.3 or more in the test for determining the amount of biofilm (the following section 2-4)) isolated from cooling water taken from a water cooling tower was cultured in R2A culture medium at 30° C. for 16 hours while shaking. The turbidity (OD600) of the resultant culture solution was measured. The culture solution was diluted with R2A culture medium to prepare a suspension of 10^3 cfu/mL.
as §1
The suspension of a test microbe prepared in the above section 2-1) was added in individual wells of a 96 well microplate in an amount of 150 μL, and then, the test solutions prepared in the above section 2-2) was each added and culture was initiated.
After the 96 well microplate was subjected to stationary culture performed at 30° C. for 48 hours, the culture solution was removed and the resultant microplate was washed with water. Subsequently, each well was stained with 0.1% crystal violet and 200 μL of ethanol was added. The absorbance (OD570) was measured to obtain the amount of biofilm (BF) formed.

Data set [3] has as its system Pseudomonas PAO1 strain (ATCC 15692). The data set is described as follows: Amount of biofilm formed (crystal violet, OD570), 96-well microplate culture. The data set is classed as cell-based. Conditions: Pseudomonas, read-out: BF inhibition (%). The procedure, abridged: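 PAO1 suspension in Mueller Hinton Broth (OD600 1/10^6) grown stationary 24 h at 30 °C with compounds dried from ethanol plus DMSO, final about 7–333 ppm or as listed. Biofilm stained with 0.1% crystal violet, ethanol-eluted, OD570; inhibition % = {1−(compound OD570/ethanol-control OD570)}×100.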

The test system is the same in data set [4]. The data set is described as follows: Growth of test microbe (turbidity OD600), 96-well microplate culture. The data set is classed as cell-based. As to conditions: Pseudomonas. An outline of the steps:
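P. aeruginosa PAO1 diluted in Mueller Hinton Broth, exposed to test compound (ethanol stock evaporated onto DMSO in wells) and grown static at 30° C for 24 h; growth read as OD600. Growth inhibition % = (1 − compound OD600/ethanol-control OD600) × 100.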

The subject of a further data set is B. coli. As to conditions: to B. coli; Non Patent Literature 4; cited from earlier work.

SMILES strings stand for the structures.

`O=C(O)CC(O)(CC(=O)O)C(=O)O` [Citric acid]: the “dissolution in MDG (diethylene glycol monomethyl ether)” value in data set [1] is “not dissolved”. The molecule further came in with an OD570 in data set [2] of 0.261.
By inhibition is commonly meant how much of the control response was suppressed. Turning to `CC(C)(C)c1cc(O)ccc1O` [c, tert-Butylhydroquinone], the inhibition at 22 ppm in data set [3] (final concentration 22 ppm) is 34.8%; in data set [4] (final concentration 22 ppm) it was below 0%. Also, the inhibition at 44 ppm in data set [3] (final concentration 44 ppm) worked out at 22.5%; in data set [4] (final concentration 44 ppm), 5.3%. For the same molecule, the inhibition at 89 ppm was 32.5% in data set [3] (final concentration 89 ppm) and 9.5% in data set [4] (final concentration 89 ppm). Further, the inhibition at 133 ppm in data set [3] (final concentration 133 ppm) is 50%; in data set [4] (final concentration 133 ppm) it was below 0%. Also, the inhibition at 155 ppm worked out at 69.3% in data set [3] (final concentration 155 ppm) and 11.8% in data set [4] (final concentration 155 ppm). Further, the figures for the inhibition at 177 ppm in data set [3] (final concentration 177 ppm) and in data set [4] (final concentration 177 ppm) were 64.8% and 13.3%, respectively. Besides, in the data set with B. coli, the “minimum inhibitory concentration (MIC)” value was 512 ppm.
